Patent US12275725B2, “Inhibitors of the notch transcriptional activation complex and methods for use of the same” (University of Miami, priority 2019, dated 2025)
Like-named read-outs stand apart in the source and are kept apart here.

What was measured:
[1] = molecular target: T1, Notch1 transcriptional complex (Homo sapiens, UniProt P46531); assay: 2xCSL DNA affinity precipitation, OE33 nuclear lysate: Notch1; format: cell-based; conditions: OE33, 48 hours of treatment
T1 construct: endogenous in cells; host or cells: OE33 cells, nuclear lysate
Method: DNA Affinity Purification
Streptavidin agarose beads (Pierce) were incubated with previously annealed 47-mer biotinylated dsDNA containing two high-affinity CSL binding sites facing forward (2×CSL binding DNA) or 2 mutated CSL binding sites (mut. DNA). Sequences were previously reported by Weaver et al. (2014) Cancer Res. The nuclear lysates of OE33 cell lines were incubated with the DNA streptavidin beads, and bound proteins were analyzed by Western blot. Protein analysis was carried out using conventional SDS-PAGE and transfer techniques. Blots were probed with the indicated antibody (“Ab”), using standard conditions, and detected using enhanced chemiluminescence (“ECL”). The following Ab were used: anti-Notch1^val1744 (4147S, Cell Signaling Technology), anti-Notch2^val1697 (SAB4502022, Sigma-Aldrich), anti-Notch3 (5276S, Cell Signaling), anti-CSL (5313S, Cell signaling), anti-SP1 (5931S, Cell Signaling), and anti-GAPDH (ab9483 Abcam).

[2] = test system: OE33 cell line (esophageal adenocarcinoma); assay: Tumor sphere viability, MTT assay, OE33; format: cell-based, human; conditions: OE33, 72 hours of treatment
Method: FIG. 4A depicts a graph showing the ability of NADi-351 to inhibit the tumor sphere viability of the OE33 cell line (esophageal adenocarcinoma) after 72 hours of treatment using the Methylthiazolyldiphenyl-tetrazolium bromide (“MTT”) assay.
The compounds and salts disclosed herein can inhibit the viability of tumor spheres and decrease Notch target gene expression.
OE33 cells, human esophageal adenocarcinoma cell lines, were obtained from the European Collection of Cell Culture. SUM-149 and SUM-159, breast cancer cell lines, were obtained from Dr. Joyce Slingerland at the University of Miami School of Medicine. The following cell lines were obtained directly from the ATCC: 786-0, a human renal cell adenocarcinoma cell line; HT-1080, a human fibrosarcoma cell line; MCF-7, a mammary gland adenocarcinoma; T47D, a human mammary ductal carcinoma cell line; and H-23 a non-small cell lung adenocarcinoma cell line. All cell lines were propagated in growth media as specified.

intestinal crypts = assay: Histological analysis of mouse intestine tissue (H&E and PAS staining); format: in vivo, BALB/c mice; conditions: 5 days; DBZ at efficacious dose, NADi-351 at 4x the efficacious dose
Method: The compounds and salts disclosed herein no not induce goblet cell metaplasia in intestinal crypts. Intestinal crypts were exposed to vehicle (DMSO), an efficacious dose of dibenzazepine (“DBZ”), a γ-secretase inhibitor, and 4× the efficacious dose of NADi-351 and stained with a hemotoxylin and eosin (“H&E”) stain and a periodic acid-Schiff (“PAS”) stain.
Six-week old BALB/c mice (Jackson Laboratories) were injected intraperitoneally with NADi-351, daily for 5 days. Small intestine samples were harvested on day 5. Formalin-fixed and paraffin-embedded tissues were sectioned at 3 μm thickness. Histochemical identification of intestinal cell types was performed with Periodic Acid-Schiff (PAS) staining kit (ab150680, Abcam), according to manufacturer's instructions.

[3] = GSH ethyl ester conjugation / parent remaining in human liver microsomes; format: in vitro ADME; conditions: for Percentage (%) Parent Remaining in HLM: reacted with GSH
Notch target genes = assay: Quantitative RT-PCR of Notch target genes in OE33 cells; format: cell-based, human; conditions: OE33, 48 h, compared to control (DMSO), normalized to TBP
Method: Quantitative RT-PCR Other Assays
RNA was isolated from OE33 cells treated with either DMSO (vehicle) or NADi-351 for 48 h, using an RNA purification kit (Qiagen), following the manufacturer's instructions. cDNA was synthesized using the High Capacity cDNA Reverse Transcription kit (Applied Biosystems), according to the manufacturer's instructions. qPCR reactions were carried out in the Bio-Rad CFX96 thermal cycler using Sybr Green Master Mix (Bio-Rad). Gene expression was normalized to housekeeping gene TBP. […]

[4] = test system: OE33 cell line (esophageal adenocarcinoma); assay: Colony assay, OE33; format: cell-based, human; conditions: OE33, repeat dose every 48 hours for 10 days
Method: Cells were plated into a 6 well plate at a density of 2000 cells/cm^2. Inhibitor treatment commenced 24 hours post seeding, and the media containing inhibitor was changed every 48 hours thereafter. […]

[5] = Pharmacokinetic study in mouse plasma; format: in vivo; conditions: iv, i.v. 10 mg/kg
[6] = Pharmacokinetic study in mouse plasma; format: in vivo; conditions: for Cmax: read-out: *C0/Cmax; for bioavailability: mouse
Method: Pharmacokinetic studies were performed as previously described (Astudillo et al. (2016) Cancer Res). The following treatments were administered: NADi-260 via intraperitoneal (i.p.) route at 100 mg/kg, NADI-260 via intravenous route (i.v.) at 2 mg/kg, NADi-351 via i.p. at 10 mg/kg, NADi-351 via […] at 10 mg/kg and NADi-351 via oral route (PO) at 50 mg/kg. Blood samples were collected from each treatment group and their respective control grounds, plasma was separated from blood immediately by centrifugation at 4000 rpm for 10 min at 4° C. and stored below −70° C. until bioanalysis. All samples were processed for analysis by protein precipitation using acetonitrile and analyzed by fit for purpose LC-MS/MS method. Pharmacokinetic parameters were calculated using the non-compartmental analysis module of Phoenix WinNonlin (Version 6.3). Histological Analysis of Mouse Intestine Tissue

[7] = ip, i.p. 10 mg/kg, mouse plasma
[8] = iv, i.v. 10 mg/kg, mouse plasma
[9] = po, p.o. 50 mg/kg, mouse plasma

T1 sequence (P46531 1754-2555 limits assumed): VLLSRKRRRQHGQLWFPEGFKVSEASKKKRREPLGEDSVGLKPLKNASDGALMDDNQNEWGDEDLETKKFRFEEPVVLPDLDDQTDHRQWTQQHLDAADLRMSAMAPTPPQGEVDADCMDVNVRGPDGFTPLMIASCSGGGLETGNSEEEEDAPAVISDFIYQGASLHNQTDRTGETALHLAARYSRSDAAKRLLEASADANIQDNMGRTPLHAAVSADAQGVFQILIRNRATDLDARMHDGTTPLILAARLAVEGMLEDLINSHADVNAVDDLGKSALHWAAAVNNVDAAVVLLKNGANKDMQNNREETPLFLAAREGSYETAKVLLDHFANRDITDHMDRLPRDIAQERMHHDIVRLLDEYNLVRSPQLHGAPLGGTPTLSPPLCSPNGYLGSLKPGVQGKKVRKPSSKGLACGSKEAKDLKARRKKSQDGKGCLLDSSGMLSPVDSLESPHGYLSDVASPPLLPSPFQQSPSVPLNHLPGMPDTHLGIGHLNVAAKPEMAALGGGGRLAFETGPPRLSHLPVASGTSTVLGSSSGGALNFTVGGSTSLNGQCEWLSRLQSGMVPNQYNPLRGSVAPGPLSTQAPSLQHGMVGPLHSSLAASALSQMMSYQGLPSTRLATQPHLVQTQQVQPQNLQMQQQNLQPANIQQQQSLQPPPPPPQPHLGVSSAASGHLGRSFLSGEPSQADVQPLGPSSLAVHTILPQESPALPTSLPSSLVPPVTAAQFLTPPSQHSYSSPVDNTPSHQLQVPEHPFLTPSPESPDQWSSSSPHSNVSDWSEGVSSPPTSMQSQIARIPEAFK
T1 sequence (Q06330 whole entry partner): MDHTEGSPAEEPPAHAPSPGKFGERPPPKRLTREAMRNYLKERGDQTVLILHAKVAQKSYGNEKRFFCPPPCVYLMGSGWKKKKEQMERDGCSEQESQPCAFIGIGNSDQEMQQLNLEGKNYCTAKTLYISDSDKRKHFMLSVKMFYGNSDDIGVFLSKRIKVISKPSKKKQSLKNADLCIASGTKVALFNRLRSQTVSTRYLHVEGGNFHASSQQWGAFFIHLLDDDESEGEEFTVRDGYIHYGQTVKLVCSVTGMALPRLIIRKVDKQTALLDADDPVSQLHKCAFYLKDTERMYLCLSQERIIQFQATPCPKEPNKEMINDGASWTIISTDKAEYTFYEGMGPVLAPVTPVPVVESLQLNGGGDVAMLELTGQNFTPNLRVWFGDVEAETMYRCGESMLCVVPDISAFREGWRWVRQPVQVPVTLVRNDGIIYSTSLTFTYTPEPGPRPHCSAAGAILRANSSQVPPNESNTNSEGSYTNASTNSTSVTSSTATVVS

- formation of the Notch1 intracellular domain (N1icd) complex [1]: inhibited the formation
- Percentage (%) Parent Remaining in HLM ([3]; incubation time 0 min): 100%
- Percentage (%) Parent Remaining in HLM ([3]; incubation time 60 min): 86%
- AUC(0-t) [5]: 4570 ng·h/mL
- Cmax ([5]; back extrapolated, read-out: *C0/Cmax): 15900 ng/mL
- AUC(0-inf) [6, 7]: 4550 ng·h/mL
- AUC(0-t) [6, 7]: 4550 ng·h/mL
- Tmax [6, 7]: 15 min
- Cmax [6, 7]: 8200 ng/mL
- AUC(0-inf) [6, 8]: 4570 ng·h/mL
- clearance [6, 8]: 36.5 mL/min/kg
- half-life [6, 8]: 87.6 min
- Vd ([6]; iv, i.v. 10 mg/kg, mouse plasma, read-out: Vss): 0.8 L/kg
- bioavailability ([6]; FIG. 3): excellent bioavailability
- bioavailability ([6]; plasma, po, p.o. 50 mg/kg, read-out: % F): > 100%
- AUC(0-inf) [6, 9]: 38000 ng·h/mL
- AUC(0-t) [6, 9]: 37900 ng·h/mL
- Tmax [6, 9]: 30 min
- Cmax [6, 9]: 17500 ng/mL
SMILES: COc1cc(/C(C)=C2\SC(=S)N(CC(=O)N(C)C)C2=O)cc(F)c1OCc1nnc[nH]1 [NADi-351, (Z)-2-(5-(1-(4-((1H-1,2,4-triazol-3-yl)methoxy)-3-fluoro-5-methoxyphenyl)ethylidene)-4-oxo-2-thioxothiazolidin-3-yl)-N,N-dimethylacetamide]
- decrease of tumor sphere viability [2]: about 75%
- goblet cell metaplasia / crypt integrity (H&E and PAS staining) (intestinal crypts): no goblet cell metaplasia and intact crypts
- GSH ethyl ester conjugation in HLM ([3]; within 60 minutes of incubation): increased stability toward GSH ethyl ester conjugation
- expression of Notch target genes (Notch target genes): decreased the expression of Notch target genes
- colony formation [4]: decreased colony formation
- metabolic stability compared with NADi-260 ([6]; mouse plasma, FIG. 3): significantly improved metabolic stability
